Measurements published in patent publication US20170239323A1, “ORITAVANCIN FORMULATIONS” (The Medicines Company, priority 2016, published 2017).

Assays:
[1] = Dilution in Hank's Balanced Salt Solution (HBSS, plasma surrogate): pH and visual observations; assay type: physicochemical; conditions: for time at which oritavancin started to fall out of solution: repeat with material 24 hours after reconstitution
Protocol: Reconstituting Orbactiv 400 mg (Oritavancin) in 20% w/v aqueous HPCD then diluting in Hank's Balanced Salt Solution (HBSS). 2.641 g of HPCD was dissolved in 13.205 mL of water to make a 20% w/v solution (pH=6.70). Eight (8) mL of the 20% w/v solution was added to a 400 mg vial of Orbactiv for a target oritavancin concentration of 50 mg/mL. […] A 1.5 mL aliquot of 50 mg/mL was removed from the vial and placed in a small glass vial and pH measured. Diluted 2 mL of 50 mg/mL oritavancin solution in 8 mL of HBSS. Visual observations and pH were recorded. (Table 12).
HBSS was used as a plasma surrogate in this experiment. Oritavancin at either 5 or 10 mg/mL precipitated from solution at 2 hours in HBSS. This experiment was repeated with the same material 24 hours later and observed over shorter time intervals. Diluted […] in a small glass vial to make a 10 mg/mL solution. Diluted […] in a small glass vial to make a 5 mg/mL solution. Solutions were observed and pH was tested every 0.25 hrs. (Table 14, Table 15).

[2] = Reconstituted oritavancin/HPCD solution diluted in 0.9% saline: pH and observation for precipitation; assay type: physicochemical; conditions: for pH: RT
[3] = Table 12: 20% w/v HPCD reconstitution diluted in HBSS: oritavancin 10 mg/mL, HPCD 4% w/v, 0 hr
[4] = Table 12: 20% w/v HPCD reconstitution diluted in HBSS: oritavancin 10 mg/mL, HPCD 4% w/v, 0.5 hr
[5] = Table 12: 20% w/v HPCD reconstitution diluted in HBSS: oritavancin 10 mg/mL, HPCD 4% w/v, 1 hr
[6] = Table 12: 20% w/v HPCD reconstitution diluted in HBSS: oritavancin 10 mg/mL, HPCD 4% w/v, 2 hr
[7] = Table 14: repeat with 24-hour-old 20% w/v HPCD reconstitution diluted in HBSS: oritavancin 10 mg/mL, HPCD 2% w/v, 0 hr
[8] = Table 14: repeat with 24-hour-old 20% w/v HPCD reconstitution diluted in HBSS: oritavancin 10 mg/mL, HPCD 2% w/v, 0.25 hr
[9] = Table 15: 24-hour-old 20% w/v HPCD reconstitution diluted in HBSS: oritavancin 5 mg/mL, HPCD 2% w/v, 0 hr
[10] = Table 15: 24-hour-old 20% w/v HPCD reconstitution diluted in HBSS: oritavancin 5 mg/mL, HPCD 2% w/v, 0.25 hr
[11] = Table 15: 24-hour-old 20% w/v HPCD reconstitution diluted in HBSS: oritavancin 5 mg/mL, HPCD 2% w/v, 0.5 hr
[12] = Table 15: 24-hour-old 20% w/v HPCD reconstitution diluted in HBSS: oritavancin 5 mg/mL, HPCD 2% w/v, 0.75 hr
[13] = Table 15: 24-hour-old 20% w/v HPCD reconstitution diluted in HBSS: oritavancin 5 mg/mL, HPCD 2% w/v, 1 hr
[14] = 20% w/v HPCD reconstitution diluted to 5 mg/mL in 0.9% saline, rechecked one month later
[15] = 50% HPCD reconstitution diluted to 5 mg/mL in 0.9% saline, rechecked one month later

In the case of `CN[C@H](CC(C)C)C(=O)N[C@H]1C(=O)N[C@@H](CC(N)=O)C(=O)N[C@H]2C(=O)N[C@H]3C(=O)N[C@H](C(=O)N[C@H](C(=O)O)c4cc(O)cc(O)c4-c4cc3ccc4O)[C@H](O[C@H]3C[C@](C)(N)[C@@H](O)[C@H](C)O3)c3ccc(c(Cl)c3)Oc3cc2cc(c3O[C@@H]2O[C@H](CO)[C@@H](O)[C@H](O)[C@H]2O[C@H]2C[C@](C)(NCc3ccc(-c4ccc(Cl)cc4)cc3)[C@@H](O)[C@H](C)O2)Oc2ccc(cc2Cl)[C@H]1O` [Oritavancin], the “time at which oritavancin precipitated from solution” value ([1]; 5 mg/mL in HBSS (20% w/v HPCD reconstitution)) is reported as 2 h, the “time at which oritavancin started to fall out of solution” value ([1]; 5 mg/mL in HBSS) is reported as roughly 1.5 h and the “time at which oritavancin precipitated from solution” value ([1]; 10 mg/mL in HBSS (20% w/v HPCD reconstitution)) is reported as 2 h. For the same compound, the “time at which oritavancin started to fall out of solution” value ([1]; 10 mg/mL in HBSS) was 0.5 h, the “time for which oritavancin remains in solution” value ([1]; 20% w/v aqueous HPCD reconstitution diluted into HBSS at 5 mg/mL) was “at least 1 hour” and the Observations [1, 3] was “Clear, colorless solution”. For the same compound, the pH [1, 3] was 5.83, the Observations [1, 4] was “Clear, colorless solution” and the pH [1, 4] was 5.86. For the same compound, the Observations [1, 5] was “Clear, colorless solution”, the pH [1, 5] was 5.87 and the Observations [1, 6] was “Flocculent white precipitate”. For the same compound, the pH [1, 6] was 5.92, the Observations [1, 7] was “Clear, colorless solution” and the pH [1, 7] was 6.19. The Observations [1, 8] was “Clear, colorless solution”, the pH [1, 8] was 6.21 and the pH ([1]; Table 14: repeat with 24-hour-old 20% w/v HPCD reconstitution diluted in HBSS: oritavancin 10 mg/mL, HPCD 2% w/v, 0.5 hr) was 6.30. For the same compound, the pH ([1]; Table 14: repeat with 24-hour-old 20% w/v HPCD reconstitution diluted in HBSS: oritavancin 10 mg/mL, HPCD 2% w/v, 0.75 hr) was 6.33, the pH ([1]; Table 14: repeat with 24-hour-old 20% w/v HPCD reconstitution diluted in HBSS: oritavancin 10 mg/mL, HPCD 2% w/v, 1 hr) was 6.38 and the Observations [1, 9] was “Clear, colorless solution”. For the same compound, the pH [1, 9] was 6.39, the Observations [1, 10] was “Clear, colorless solution” and the pH [1, 10] was 6.47. For the same compound, the Observations [1, 11] was “Clear, colorless solution”, the pH [1, 11] was 6.50 and the Observations [1, 12] was “Clear, colorless solution”. The pH [1, 12] was 6.59, the Observations [1, 13] was “Clear, colorless solution” and the pH [1, 13] was 6.61. For the same compound, the pH ([1]; Table 15: 24-hour-old 20% w/v HPCD reconstitution diluted in HBSS: oritavancin 5 mg/mL, HPCD 2% w/v, 1.25 hr) was 6.63, the pH ([1]; Table 15: 24-hour-old 20% w/v HPCD reconstitution diluted in HBSS: oritavancin 5 mg/mL, HPCD 2% w/v, 1.5 hr) was 6.71 and the pH ([1]; Table 15: 24-hour-old 20% w/v HPCD reconstitution diluted in HBSS: oritavancin 5 mg/mL, HPCD 2% w/v, 1.75 hr) was 6.76. It also gave a pH ([2]; 20% w/v HPCD reconstitution diluted in 0.9% saline: oritavancin 5 mg/mL, HPCD 2% w/v, 0 hr) of 4.17, a pH ([2]; 20% w/v HPCD reconstitution diluted in 0.9% saline: oritavancin 5 mg/mL, HPCD 2% w/v, 0.08 hr) of 4.17 and a pH ([2]; 20% w/v HPCD reconstitution diluted in 0.9% saline: oritavancin 5 mg/mL, HPCD 2% w/v, 0.5 hr) of 4.17. It also gave a pH ([2]; 20% w/v HPCD reconstitution diluted in 0.9% saline: oritavancin 5 mg/mL, HPCD 2% w/v, 1 hr) of 4.17, a pH ([2]; 20% w/v HPCD reconstitution diluted in 0.9% saline: oritavancin 5 mg/mL, HPCD 2% w/v, 24 hr) of 4.17 and a pH ([2]; 20% w/v HPCD reconstitution diluted in 0.9% saline: oritavancin 5 mg/mL, HPCD 2% w/v, 720 hr) of 4.32. The appearance / precipitation ([2]; 20% w/v HPCD reconstitution diluted to 5 mg/mL in 0.9% saline, for 24 hours) was “remained clear and colorless without any precipitation”, the appearance [2, 14] was “clear and colorless” and the pH change [2, 14] was “increased slightly”. For the same compound, the appearance / precipitation ([2]; 20% w/v HPCD reconstitution diluted to 6 mg/mL in 0.9% saline) was “remained clear and colorless without any visible precipitation”, the “time for which no precipitation was observed” value ([2]; 20% w/v HPCD reconstitution pH adjusted (up to 7), diluted to 5 mg/mL in 0.9% saline) was “at least 12 hours” and the appearance ([2]; 20% w/v HPCD reconstitution, diluted to 5 mg/mL in 0.9% saline, pH 6.5 and above, for 24 hours) was “maintained clear and colorless”. The appearance / precipitation ([2]; 50% HPCD reconstitution diluted to 5 mg/mL in 0.9% saline, for 24 hours) was “remained clear and colorless without any precipitation”, the appearance [2, 15] was “clear and colorless” and the pH change [2, 15] was “increased slightly”. For the same compound, the pH ([2]; 50% w/v HPCD reconstitution diluted in 0.9% saline: oritavancin 5 mg/mL, HPCD 5% w/v, 0 hr) was 4.14, the pH ([2]; 50% w/v HPCD reconstitution diluted in 0.9% saline: oritavancin 5 mg/mL, HPCD 5% w/v, 0.08 hr) was 4.14 and the pH ([2]; 50% w/v HPCD reconstitution diluted in 0.9% saline: oritavancin 5 mg/mL, HPCD 5% w/v, 0.5 hr) was 4.14. For the same compound, the pH ([2]; 50% w/v HPCD reconstitution diluted in 0.9% saline: oritavancin 5 mg/mL, HPCD 5% w/v, 1 hr) was 4.14, the pH ([2]; 50% w/v HPCD reconstitution diluted in 0.9% saline: oritavancin 5 mg/mL, HPCD 5% w/v, 24 hr) was 4.15 and the pH ([2]; 50% w/v HPCD reconstitution diluted in 0.9% saline: oritavancin 5 mg/mL, HPCD 5% w/v, 720 hr) was 4.26. For the same compound, the “time for which no precipitation was observed” value ([2]; 50% w/v HPCD reconstitution pH adjusted (up to 6.3), diluted to 5 mg/mL in 0.9% saline) was “at least 1 hour”, the “time for which no precipitation was observed” value ([2]; 50% w/v HPCD reconstitution pH adjusted (up to 7), diluted to 5 mg/mL in 0.9% saline) was “at least 12 hours” and the appearance ([2]; 50% w/v HPCD reconstitution pH adjusted, diluted to 5 mg/mL in 0.9% saline, at 24 hours) was “Some discoloration”. For the same compound, the appearance ([2]; pH 5.7) was “Some discoloration”, the “time for which solution maintains clarity” value ([2]; pH adjusted to pH 7 in saline using NaOH) was “at least 12 hours” and the stability in solution ([2]; reconstituted in 20% or 50% w/v HPCD, diluted into saline at 5 mg/mL) was “does not fall out of solution for at least one month”.
